Test results reported in PubChem BioAssay AID1117319 (Southern Research Institute, 2015).
Records with an inconclusive call do not appear.

Biological target: Virion infectivity factor (Human immunodeficiency virus type 1 group M subtype B (isolate BH10)) + Virion infectivity factor (Human immunodeficiency virus type 1 group M subtype B (isolate BRU/LAI)) + Virion infectivity factor (Human immunodeficiency virus type 1 group M subtype B (isolate PCV12)) + Virion infectivity factor (Human immunodeficiency virus type 1 group M subtype B (isolate HXB2)) + DNA dC->dU-editing enzyme APOBEC-3G (Homo sapiens) (UniProt P69720+P69721+P69722+P69723+Q9HC16)
Assay: HIV-1 Vif–A3G interaction blockers – biochemical, TR-FRET, GST-Vif 1-94, biotin-A3G peptide, dose response retest, primary screen (AID 1117319);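 also: Vif residues 1-94 fused to GST binding biotinylated APOBEC3G peptide 110-148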
Details: TR-FRET GST-Vif / biotin-A3G peptide binding

Row | Structure (SMILES) | IC50 [µM]
1 | O=[N+]([O-])c1cc(Br)c(O)c(C=Nc2ccc(N3CCOCC3)cc2)c1 | 7.19
2 | C(=C\c1ccco1)/C=N/n1cnnc1 | 1.35
3 | CN(CCC#N)C(=O)COC(=O)c1c2c(nc3ccccc13)/C(=C\c1ccco1)CC2 | 1.66
4 | COc1ccc2[nH]c(=O)c(CN(Cc3ccco3)C(c3nnnn3Cc3ccccc3)C(C)C)cc2c1 (stereo not given) | 94.6
5 | CCN(C(=O)c1coc(=O)c(Br)c1)c1ccc2c(c1)OCO2 | 1.06
6 | CC1CCC/C(=C\Nc2ccc(O)cc2)C1=O (stereo not given) | 17.2
7 | CO[C@H]1C=CO[C@@]2(C)Oc3c(C)c(O)c4c(O)c(c(C=NN5CCN(C)CC5)c(O)c4c3C2=O)NC(=O)C(C)=CC=C[C@H](C)[C@H](O)[C@@H](C)[C@@H](O)[C@@H](C)[C@H](OC(C)=O)[C@@H]1C | 7.75
8 | Cc1nc2nc(C)c(CCC(=O)N3CCN(c4ccccc4)CC3)c(C)n2n1 | 59.5
9 | O=[N+]([O-])c1ccccc1S(=O)(=O)NC1CCCC1 | 12.9
10 | COc1ccc2c(c1)n([O-])c1c([n+]2=O)CCC1 | 5.16
11 | O=C(O)c1c2c(nc3ccc(Cl)cc13)CCC2 | 23.4
12 | COc1cc(/C=C2\CC/C(=C\c3cc(OC)c(O)c(OC)c3)C2=O)cc(OC)c1O | 1.56
13 | O=C(NCc1ccccc1)c1ccc2nc(-c3ccco3)c(-c3ccco3)nc2c1 | 0.48
14 | Cc1ccc(NC(=O)c2ccc(Cl)c(N3C(=O)C=CC3=O)c2)cc1 | 81.2
15 | O=C(OC1CCCCC1)c1ccc2c(c1)C1C=CCC1C(C(=O)O)N2 (stereo not given) | 0.51
16 | O=C(O)CSc1c2c(nc3cc(C(=O)Nc4cccc(C(F)(F)F)c4)ccc13)CCC2 | 13.4
17 | O=C1NN(c2ccc(Cl)cc2)C(=O)/C1=C\c1ccc(-c2cccc(C(=O)O)c2)o1 | 5.76
18 | O=S(=O)(O)c1cc(O)c(N=Nc2ccc(O)cc2O)c2ccccc12 | 5.25
19 | Cn1cccc1/C=C1\CCC/C(=C\c2cccn2C)C1=O | 3.09
20 | Cc1ccnc(NS(=O)(=O)c2ccc(NC(=O)Cc3cccs3)cc2)n1 | 8.35
21 | CCCC1=NN2C(=N)/C(=C\c3ccc(SCc4ccco4)o3)C(=O)N=C2S1 | 8.14
22 | O=C(N/N=C/c1cn(Cc2cccc(F)c2)c2ccccc12)c1cc(O)cc(O)c1 | 3.48

Row | Structure (SMILES) | IC50 [µM]
23 | COc1cc(NCCCNC(C)C)c2nccc(C)c2c1 | 52.8
24 | Cc1cc(C)c2c(c1)[C@@H]1C=CC[C@@H]1[C@H](c1ccc(S(=O)(=O)N3CCOCC3)cc1)N2 | 19.5
25 | Cc1ccc2c(c1)c1ccc3c(c1n2C)C(=O)C=CC3=O | 3.94
26 | CC(=O)OC1COC(n2ccc3ccccc32)C(OC(C)=O)C1OC(C)=O (stereo not given) | 22.6
27 | CC(=O)N(C1=C(Cl)C(=O)c2ccccc2C1=O)c1ccc(C(=O)O)cc1 | 59.7
28 | Oc1ccc(C2Nc3cccc4cccc(c34)N2)c(O)c1 | 17.5
29 | COC/C=C/C1=CC2=CC(=O)C(C)(OC(=O)C3CCCC3)C(=O)C2=CO1 (stereo not given) | 2.75
30 | COc1cccc(C(C#N)N2CCCCC2)c1O (stereo not given) | 79.2
31 | CC1COCC(C)N1C1=C(Cl)C(=O)c2ccccc2C1=O (stereo not given) | 11
32 | O=C1CC(=O)N(Cc2ccco2)C(=S)N1 | 2.21
33 | Cc1ccc(N/N=C/c2c(C)c(C#N)c(=O)n(C)c2O)cc1C | 91.3
34 | COc1ccccc1-n1c(SCC(=O)NCc2ccc3c(c2)OCO3)nc2cc([N+](=O)[O-])ccc21 | 22.7
35 | CN1c2ccsc2C(O)=C(C(=S)Nc2ccc(F)c(Cl)c2)S1(=O)=O | 1.12
36 | Cc1cc2c(N)cccc2nn1 | < 0.195
37 | CSc1nnc(-c2ccco2)c(-c2ccco2)n1 | 1.49
38 | CCOc1cc(N2CCOCC2)c(OCC)cc1NC(C)C(=O)N1CCN(CC)CC1 (stereo not given) | 23.9
39 | C/C(N)=C(/C#N)C(=O)CSc1nnc(NC(C)C)s1 | 9.7
40 | O=C1/C(=C\c2ccco2)CCC/C1=C\c1ccco1 | 3.05
41 | O=S(=O)(O)c1cccc2c(N=Nc3ccc(O)c4ncccc34)cccc12 | 13.6
42 | CCOC(=O)C(C(=O)OCC)c1cc(Br)c2noc3c2c1C(=O)c1ccccc1-3 | 2.45
43 | Nc1ccc(N2CCCCCC2)cc1 | 1.06
44 | CCOC(=O)C1=C(C)N=C2SC(C(=O)OC)=CC(=O)N2C1c1cc(OC)c(OC)c(OC)c1 (stereo not given) | 11

Row | Structure (SMILES) | IC50 [µM]
45 | CCN(CC)c1ccc2oc(=O)c(C)nc2c1 | 2.87
46 | Cc1cc(C)cc(N(CC(=O)NCc2cccnc2)S(C)(=O)=O)c1 | 36.7
47 | COc1cc(CNc2ccc(O)cc2)cc(Br)c1OCc1ccccc1 | 3.04
48 | C[c-]1[c-](C)[c-](C)[c-](C)[c-]1C.[Fe].c1cc2nccc(N3CCCC3)[c-]2c1 (stereo not given) | 2.03
49 | Nc1ccc(Nc2ccccc2)c(S(=O)(=O)O)c1 | 5.26
50 | CC1CCCN(Cc2c(O)ccc3c2O/C(=C\c2ccco2)C3=O)C1 (stereo not given) | 2.89
51 | CCOc1ccc(CCNC(=O)C2CC(C)=CCC2C(=O)O)cc1OCC (stereo not given) | 56.6
52 | COC(=O)c1ccccc1NC(=O)c1noc2c1CCC2 | 26
53 | O=C1CC(Nc2ccc(N3CCOCC3)cc2)C(=O)N1Cc1ccccc1 (stereo not given) | 2.29
54 | CCOc1ccccc1NC(=O)CCS(=O)(=O)c1ccc(Br)cc1 | 7.52
55 | CC1=C/C(=N\OS(=O)(=O)c2ccccc2)C=CC1=O | 16.7
56 | Cc1[nH]c2ccccc2c1C(=O)Cn1c(=O)oc2ccccc21 | 96.2
57 | N#CC(C#N)=Cc1cccn1-c1ccc(C(=O)O)cc1 | 10.3
58 | O=C(Nc1ccn(-c2ccccc2)n1)c1ccccc1Br | 10.6
59 | O=C1CC(Nc2ccc(N3CCOCC3)cc2)C(=O)N1c1ccccc1F (stereo not given) | 1.65
60 | COc1cccc(C2NC(=O)NC(O)(C(F)(F)F)C2C(=O)c2cccnc2)c1OC (stereo not given) | 47.1
61 | O=C1CC(c2ccco2)CC(O)=C1C=Nc1cc(Cl)ccc1Cl (stereo not given) | 4.07
62 | O=C(NCCCO)Nc1ccc2nc(-c3ccco3)c(-c3ccco3)nc2c1 | 0.26
63 | O=[N+]([O-])c1cc(CN2CCN(c3cccc(C(F)(F)F)c3)CC2)c2cccnc2c1O | 8.68
64 | CN(CC(=O)Nc1cccc(F)c1)C(=O)c1cccc(-n2cccc2)c1 | 8.08
65 | O=C1CC(=O)N(Cc2ccco2)C(=O)N1 | 4.49
66 | CCCCn1c(O)c(C(CC)=NCCN2CCCCC2)c(=O)[nH]c1=O | 4.09

Row | Structure (SMILES) | IC50 [µM]
67 | Nc1nc(Sc2ccc([N+](=O)[O-])c3nonc23)c2[nH]cnc2n1 | 10.9
68 | Cc1cccc(N2C(=O)NC(=O)/C(=C/c3cc4c(cc3[N+](=O)[O-])OCO4)C2=O)c1 | 59.1
69 | CC(=O)OCCCNc1cc(Sc2nc3ccccc3s2)c2nonc2c1[N+](=O)[O-] | 53.1
70 | COc1cccc(-c2nn(C)c3sc(C(=O)Nc4ccc5c(c4)OCCO5)cc23)c1 | 51.6
71 | CC1CCCCN1Cc1ccc(N(C)C)cc1 (stereo not given) | 66.6
72 | COc1ccc2c(c1)c1ccc3c(c1n2C)C(=O)C=CC3=O | 2.42
73 | COC(=O)c1ccc(COc2ccc(/C=N/Nc3cccc(C(=O)O)c3)cc2)cc1 | 63.2
74 | C=CCN=c1scc(C)n1/N=C/c1ccc(O)c(O)c1 | 15.4
75 | NCCc1c[nH]c2ccccc12 | 1.66
76 | O=C(O)c1ccc(-n2nc(C(F)(F)F)c3c2-c2ccoc2CC3)cc1 | 58.6
77 | Cc1ccc2c(c1)C1C=CCC1C(C(=O)O)N2 (stereo not given) | 0.95
78 | CN1CCN(C2=C(Cl)C(=O)c3ccccc3C2=O)CC1 | 4.42
79 | COc1cccc(-c2nn3c(-c4ccccn4)nnc3s2)c1 | 81.3
80 | CC1OC(OCC2OC(Oc3c(-c4ccc(O)cc4)oc4cc(O)cc(O)c4c3=O)C(O)C(O)C2O)C(O)C(O)C1O (stereo not given) | 11.8
81 | CC(=O)c1sc2nc(-c3ccco3)ccc2c1N | 2.78
82 | CCN(C(=O)CN1CCN(c2ccc(O)cc2)CC1)c1c(N)n(Cc2ccccc2)c(=O)[nH]c1=O | 16.4
83 | O=S(=O)(Nc1nccs1)c1ccc(Nc2nnc(-c3ccccc3)c3ccccc23)cc1 | 84.3
84 | COc1cc(NC(=O)CS(=O)(=O)c2ccc(C)cc2)cc(OC)c1OC | 23.3
85 | COCCNC(=O)c1ccc(CS(=O)(=O)c2c(Cl)cccc2Cl)o1 | 39.9
86 | O=C(Nc1ccc(F)cc1F)c1noc2c1CCC2 | 12.8
87 | O=C(/C=C/c1ccco1)NC(=S)Nc1ccccc1N1CCOCC1 | 11.5
88 | Cc1cc(/C=C2\SC(=S)NC2=O)c(C)n1C | 36.2

Row | Structure (SMILES) | IC50 [µM]
89 | CCOC(=O)CNc1ccc2c(c1)OCO2 | 2.46
90 | FC(F)(F)C1=Nc2cccc3cccc(c23)N1 | 5.95
91 | O=C(/C=C/c1cccs1)N1CCN(c2ccc(O)cc2)CC1 | 20.9
92 | CCOC(=O)Cc1cc(=O)n2[nH]c(C)cc2n1 | 75.3
93 | CC(C)CCNC(=O)Cn1c2c(c(-c3ccccc3Cl)cc1=O)CCC2 | 19.7
94 | CCC(C)(C)n1nnnc1C(c1ccc2ncccc2c1)N1CCN(c2ccc(O)cc2)CC1 (stereo not given) | 4.65
95 | NC(=O)Cn1c(=O)n(Cc2ccco2)c(=O)c2c3c(sc21)CCCCC3 | 3.8
96 | O=C(Nc1cc(Cl)ccn1)C1CCN(S(=O)(=O)c2cccs2)CC1 | 56.8
97 | CC(=O)NN1C(=O)/C(=C\c2ccc(Br)o2)SC1=S | 5.73
98 | COc1cccc(CNC(=O)Cn2c(=O)oc3ccccc32)c1OC | 85.7
99 | CCN(CC)S(=O)(=O)c1cccc(C(=O)N/N=C/c2ccc(O)c(O)c2O)c1 | 3.48
100 | CN(CCO)c1cc(Sc2nc3ccccc3s2)c2nonc2c1[N+](=O)[O-] | 42.6
101 | CCNc1ccc(Br)cc(C(=O)/C=C/c2ccc(Cl)cc2)c1=O | 7.05
102 | Cc1ccc(/C=C/C(=O)Nc2ccc([N+](=O)[O-])c(NC(=O)/C=C/c3ccc(C)o3)c2)o1 | 1.49
103 | C=C(C)C(=O)Nc1cccc(C2=NOC3(C2)C[C@H](C(N)=O)N(C(=O)COc2ccc(Cl)cc2)C3)c1 (stereo not given in full) | 1.28
104 | CCOc1ccc2[nH]c(=O)c(CN(Cc3nnnn3Cc3ccco3)C3CCCCC3)cc2c1 | 4.82
105 | Cc1cccc(-n2c(N)cc(=O)nc2SCC(=O)NC2CCCCC2)c1 | 93.7
106 | Cc1cc(-c2csc(NC(=O)c3cc4ccccc4o3)n2)c(C)n1C | 48.7
107 | O=C(Nc1cccc(C(F)(F)F)c1)c1ccc2nc(-c3ccco3)c(-c3ccco3)nc2c1 | 0.69
108 | Nc1cc(N)nc(SCc2cc([N+](=O)[O-])cc3c2OCOC3)n1 | 74.1
109 | Cc1ccc[n+](-c2[nH]c(=O)sc2/C=N/NC(=O)c2ccccc2[O-])c1 | 51.4
110 | COc1cc(NCCCCCCN)c2ncccc2c1OC | 3.55
